Reference: patent US20070148712A1, “Breast cancer and prostate cancer assessment” (Iowa State University Research Foundation, Inc., priority 2005, published 2007)
pIC50: −log10 of the molar value.

Columns and labels:
2E9 MAb [1] = assay: Indirect competitive ELISA measuring equilibrium association constant and association/dissociation rates of MAb-hapten complexes; format: binding, mouse; conditions: for KA times higher than KA measured for the 4-OHE2-1-N3Ade adduct: comparator 4-OHE2-1-N3Ade; for KA higher by a factor than that obtained for NAcCys: comparator NAcCys; for Association constant, KA / Association rate, kon / Dissociation rate, koff: in the presence of 2E9 MAb, indirect competitive ELISA; for Association constant, KA: equilibrium; for 1/koff: dissociation time; for KA times smaller than the KA obtained for 4-OHE1-2-NAcCys: comparator 4-OHE1-2-NAcCys
Protocol: The equilibrium constant and the kinetic off- and on-rates for the analyte and the reporter molecule of interest must be known. The equilibrium association constants (KA) and association (kon)/dissociation (koff) rates for 4-OHE2-2-NAcCys and 4-OHE2-2-NAcCys-SAMSA conjugates are given in Table I, which also provides information on other closely related analytes, such as 4-OHE2, NAcCys, and 4-OHE2-1-N3Ade adduct. All values listed in Table I were determined using an indirect competitive ELISA. The value of KA for 4-OHE2-2-NAcCys-SAMSA was confirmed by an equilibrium dialysis method.
An ELISA was used to measure the association/dissociation rate constants of MAb-hapten (i.e., MAb-4-OHE1-2-NAcCys) and/or association/dissociation rate constants of related analytes. The MAb and suitable hapten(s) were mixed in solution to initiate the equilibrium reaction. At different time intervals, the amount of the free MAb in the reaction mixture was determined by an indirect ELISA. The association rate constants for 4-OHE1-2-NAcCys, 4-OHE1, NAcCys, and 4-OHE1-1-N3Ade were estimated by nonlinear regression against an equation introduced from the derivation of the mass balance of MAb-antigen/related analyte interaction (Zhuang et al., J Biosci. Bioeng. 92, 330-336 (2001); Foote et al., Proc. Natl. Acad. Sci. USA 92, 1254-1256 (1995); Goldbaum et al., J Immunol. 162, 6040-6045 (1999); Northrup et al., Proc. Natl. Acad. Sci. USA 89, 3338-3342 (1992)).
To determine the bound fraction of the antibody by ELISA, 3 rows and 8 columns of the microtiter plate were incubated with sufficient concentration of antigen to saturate the wells. After washing the plate with PBS 3 times, 4 rows of the plate including 3 rows coated with the antigen were blocked with 1% non-fat dried milk, 0.01% Triton-X100 in PBS for 3 hrs. Then the plate was washed with PBS with Triton-X100 (0.01%) 3 times. Equal volumes (160 μL) of the antigen (or related analyte) and PBS were mixed, and the mixture was put into the first well of the row that was blocked but not coated with the antigen (non-coated row).
The average absorbance of this column (Ab) measured in the last step of the ELISA corresponds to the blank. Equal volumes (160 μL) of the antibody solution and PBS were mixed, and the mixture was put into the last (8th) well of the non-coated row. The average absorbance of this column (Ao) corresponds to the total concentration of the antibody. Equal volumes of the antibody solution and antigen (or related analyte) solution were mixed quickly, and the mixture was immediately put into the second well of the non-coated row. At appropriate time intervals (after 10, 20, 23, 26 and 28 min), a new mixture of the antibody and hapten (or related analyte) solution were mixed quickly, immediately put into the wells of the non-coated row from the […]. The average absorbance of these columns (At) corresponds to the concentration of the free antibody at t=30, 20, 10, 7, 4 and 2 min for the […], respectively. Two min after the 7th well was filled with the mixture, using an eight-channel Pipetman, the mixtures on the row were quickly dispensed into the 3 rows that were coated with the antigen (or related analyte, 50 μL each). After 1 min the mixture was discarded and the plate was washed with PBS with Triton-X100 (0.01%) 3 times. The secondary antibody solution (HRP-conjugated) was added to the plate (50 μL), and the plate was incubated at 37° C. for 1 h. After washing with PBS and Triton-X100 (0.01%) 3 times, the substrate was added to the plate (50 μL). After incubation for 10 min at room temperature, the absorbance at 405 nm was measured.
Association constants KA for 4-OHE1 and NAcCys were also determined and are 2.5·10^5 and 2.1·10^6 M^−1, respectively. […] When the time required for the equilibrium reaction between the antigen and the antibody is shorter, one can detect or quantify the hapten faster. […]

2E9 MAb [2] = assay: Competitive ELISA for 4-OHE1-2-NAcCys: inhibition of 2E9 MAb binding to immobilized antigen; parameters: species or system mouse; conditions: for pIC50: wells coated with OA-4-OHE1(E2)-2-NAcCys-16a,β-MCC, regression analysis, read-out: I50 (quantity producing 50% inhibition of MAb binding in the ELISA)
Protocol: FIG. 5 is a diagram depicting inhibition profiles obtained for 4-OHE1-2-NAcCys (curve 1); NAcCys (curve 2), 4-OHE1(E2) (curve 3), and 4-OHE1-1-N3Ade (curve 4) using the 2E9 MAb in the competitive ELISA assay. Competitor-mediated reduction of MAb binding was expressed as % inhibition vs. untreated MAb and then plotted as a function of log quantity of competitor per well of the ELISA plate.
Wells were coated with OA-40HE1(E2)-2-NAcCys-16a,β-MCC, 500 ng/mL, 50 μL/well overnight, and blocked with 1% non-fat dried milk, 0.01% Triton-X100 in PBS for 2 h at 37° C. Competition curves were generated as described below. MAb and competitor molecules 4-OHE1(E2)-2-NAcCys (1), NAcCys (2), 4-OHE1(E2) (3), and 4-OHE1(E2)-1-N3Ade (4) were added to the wells at the same time and allowed to react with immobilized antigen for one hour before secondary antibody was added. The plates were washed with PBS with Triton-X100 (0.01%). Secondary antibody labeled with horseradish peroxidase (HRP) was used according to manufacturer's (BRL, Inc.) recommendations and incubated at 37° C. for 1 h. Plates were washed again, 2,2′-azino-bis(3-ethylbenzthiazoline-6-sulfonic acid) (ABTS) was added, and the plates were read at 405 nm on a BioRad-EL800 plate reader. The specificity of the 2E9 MAb raised against 4-OHE1(E2)-2-NAcCys was confirmed, and cross-reactivity to a number of related compounds was established.
The results are shown in FIG. 5, where the competitor-mediated reduction of MAb binding is expressed as % inhibition versus untreated MAb and plotted as a function of the concentration of competitor in the wells of the ELISA plate. Inhibition curves were developed for several analytes of interest; the I50's (quantity producing 50% inhibition of MAb binding in the ELISA) of these analytes were determined by regression analysis. […] For example, the I50 of 4-OHE-1-N3Ade (I50=1.5·10^−5M) was about 2700 times higher than the I50 of the 4-OHE1-2-NAcCys (I50=5.6·10^−9M).

[3] = test system: MAb against 4-OHE2-1-N3Ade; assay: Association constant of the MAb developed against 4-OHE2-1-N3Ade; format: binding

Row | Compound | Association constant, KA (2E9 MAb [1]) [M⁻¹] | 1/koff (2E9 MAb [1]; 2E9 MAb) [s] | Association rate, kon (2E9 MAb [1]) [M⁻¹ s⁻¹] | Dissociation rate, koff (2E9 MAb [1]) [s⁻¹] | KA times smaller than the KA obtained for 4-OHE1-2-NAcCys (2E9 MAb [1]; 2E9 MAb) | further results
1 | 4-OHE1(E2)-2-NAcCys | 1.8e+08 | – | – | – | – | KA times higher than KA measured for the 4-OHE2-1-N3Ade adduct (2E9 MAb [1]; 2E9 MAb): about 2,700; KA higher by a factor than that obtained for NAcCys (2E9 MAb [1]; 2E9 MAb): 100
2 | 4-OHE2-2-NAcCys-SAMSA [4-OHE2-NAcCys-SAMSA] | 5e+07 | 185 | 270000 | 0.0054 | – | –
3 | C[C@]12CC[C@@H]3c4c(-n5cnc(=N)c6[nH]cnc65)cc(O)c(O)c4CC[C@H]3[C@@H]1CCC2=O [4-OHE1-1-N3Ade] | – | – | – | – | 2700 | Association constant, KA (2E9 MAb [1]; listed as 4-OHE1-N3Ade): 67000 M⁻¹; I50 times higher than the I50 of 4-OHE1-2-NAcCys (2E9 MAb [2]; comparator 4-OHE1-2-NAcCys): about 2700; pIC50 (2E9 MAb [2]): 4.82
4 | CC(=O)NC(CSc1cc2c(c(O)c1O)CCC1C2CCC2(C)C(=O)CCC12)C(=O)O (stereo not drawn) [4-OHE1-2-NAcCys] | – | – | – | – | – | pIC50 (2E9 MAb [2]): 8.25
5 | C[C@]12CC[C@@H]3c4ccc(O)c(O)c4CC[C@H]3[C@@H]1CCC2=O [4-OHE1] | 250000 | – | – | – | about 720 | –
6 | C[C@]12CC[C@@H]3c4c(-n5cnc(=N)c6[nH]cnc65)cc(O)c(O)c4CC[C@H]3[C@@H]1CC[C@@H]2O [4-OHE2-1-N3Ade] | 67000 | 10 | 6500 | 0.097 | – | KA [3]: 2e+08 M⁻¹
7 | CC(=O)N[C@@H](CSc1cc2c(c(O)c1O)CC[C@@H]1[C@@H]2CC[C@]2(C)[C@@H](O)CC[C@@H]12)C(=O)O [4-OHE2-NAcCys, 4-OHE2-2-NAcCys] | 1.8e+08 | 391 | 460000 | 0.0026 | – | dissociation time 1/koff (2E9 MAb [1]; 2E9 MAb): ~6.5 min; KA times higher than KA measured for the 4-OHE2-1-N3Ade adduct (2E9 MAb [1]; 2E9 MAb): about 2,700; KA higher by a factor than that obtained for NAcCys (2E9 MAb [1]; 2E9 MAb): 100; Association constant, KA (2E9 MAb [1]; listed as 4-OHE2-2-NAcCys): 1.8e+08 M⁻¹
8 | C[C@]12CC[C@@H]3c4ccc(O)c(O)c4CC[C@H]3[C@@H]1CC[C@@H]2O [4-OHE2] | 250000 | 17 | 15000 | 0.062 | – | –
9 | CC(=O)N[C@@H](CS)C(=O)O [NAcCys, N-acetylcysteine] | 2.1e+06 | 27 | 77000 | 0.037 | ~86 | –
